Assay results from patent US11040981B2, “Pyrrolotriazine compounds and methods of inhibiting TAM kinases” (Syros Pharmaceuticals, Inc., priority 2017, dated 2021).
Structures can show the parent of a compound that is named as a salt.

Legend:
FLT3 = target: T1, FLT3 (Homo sapiens, UniProt P36888); test: TR-FRET kinase activity assay, FLT3; type: biochemical; conditions: ATP at Km, 60 minutes
T1 sequence (P36888 27-993): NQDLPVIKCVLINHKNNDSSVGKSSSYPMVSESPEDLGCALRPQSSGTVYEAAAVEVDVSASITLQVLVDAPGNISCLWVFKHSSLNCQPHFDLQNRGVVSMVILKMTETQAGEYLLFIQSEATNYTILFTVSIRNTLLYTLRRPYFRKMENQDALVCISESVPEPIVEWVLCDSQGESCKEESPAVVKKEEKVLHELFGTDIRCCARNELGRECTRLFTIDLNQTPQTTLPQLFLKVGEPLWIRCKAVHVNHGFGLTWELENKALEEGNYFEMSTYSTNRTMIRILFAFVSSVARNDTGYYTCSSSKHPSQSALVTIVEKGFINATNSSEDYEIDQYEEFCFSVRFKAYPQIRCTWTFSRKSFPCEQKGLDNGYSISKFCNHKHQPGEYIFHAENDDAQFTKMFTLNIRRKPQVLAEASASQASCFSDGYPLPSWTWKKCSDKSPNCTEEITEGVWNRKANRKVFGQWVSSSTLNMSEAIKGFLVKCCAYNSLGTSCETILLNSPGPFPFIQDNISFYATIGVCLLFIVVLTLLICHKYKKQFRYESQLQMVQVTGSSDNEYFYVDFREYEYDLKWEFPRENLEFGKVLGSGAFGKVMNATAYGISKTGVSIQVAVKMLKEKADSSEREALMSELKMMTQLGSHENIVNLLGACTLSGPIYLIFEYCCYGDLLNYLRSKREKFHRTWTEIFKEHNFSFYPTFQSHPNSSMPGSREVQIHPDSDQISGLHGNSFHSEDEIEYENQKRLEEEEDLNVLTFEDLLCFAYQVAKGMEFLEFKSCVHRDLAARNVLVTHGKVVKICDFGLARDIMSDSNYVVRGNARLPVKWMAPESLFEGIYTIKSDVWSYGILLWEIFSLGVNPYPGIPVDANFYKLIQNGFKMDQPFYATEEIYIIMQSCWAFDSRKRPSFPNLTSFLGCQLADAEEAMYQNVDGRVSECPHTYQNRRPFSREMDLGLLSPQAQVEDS
Procedure, shortened: (§1)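 Enzyme + labelled peptide + cpd premixed; ATP at per-enzyme Km starts rxn. 60 min RT, HEPES pH 7.5/MgCl2/EGTA/Brij 35/DTT buffer. Stop 12.5 mM EDTA, Eu phospho-Ab 30 min dark, TR-FRET read → IC50.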

TYRO3 = target: T2, TYRO3 (Homo sapiens, UniProt Q06418); test: TR-FRET kinase activity assay, TYRO3; type: biochemical; conditions: ATP at Km, 60 minutes
T2 sequence (Q06418 41-890): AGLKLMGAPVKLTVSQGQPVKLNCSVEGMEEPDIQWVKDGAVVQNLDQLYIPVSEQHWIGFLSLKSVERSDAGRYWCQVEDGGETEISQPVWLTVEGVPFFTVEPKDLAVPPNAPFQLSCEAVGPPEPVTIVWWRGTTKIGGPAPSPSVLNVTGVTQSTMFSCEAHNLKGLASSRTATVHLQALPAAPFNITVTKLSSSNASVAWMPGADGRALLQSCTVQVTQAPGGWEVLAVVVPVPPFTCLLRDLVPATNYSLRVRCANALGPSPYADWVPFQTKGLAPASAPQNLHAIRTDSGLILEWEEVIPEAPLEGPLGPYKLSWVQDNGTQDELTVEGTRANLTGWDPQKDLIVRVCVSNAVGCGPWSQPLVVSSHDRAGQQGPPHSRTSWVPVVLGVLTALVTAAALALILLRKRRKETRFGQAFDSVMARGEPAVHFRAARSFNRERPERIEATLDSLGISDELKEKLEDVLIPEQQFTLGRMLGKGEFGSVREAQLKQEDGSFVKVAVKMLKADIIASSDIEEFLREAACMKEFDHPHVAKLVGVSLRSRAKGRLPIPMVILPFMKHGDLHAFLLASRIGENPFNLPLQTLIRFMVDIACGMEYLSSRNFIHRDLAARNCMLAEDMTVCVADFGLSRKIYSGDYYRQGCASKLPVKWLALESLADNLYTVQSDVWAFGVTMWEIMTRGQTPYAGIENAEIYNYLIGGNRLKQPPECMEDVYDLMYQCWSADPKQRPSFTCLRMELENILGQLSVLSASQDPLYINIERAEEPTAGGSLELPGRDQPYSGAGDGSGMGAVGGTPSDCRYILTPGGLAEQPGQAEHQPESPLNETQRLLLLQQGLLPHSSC
Procedure, shortened: as §1

Row | IC50 (FLT3) | IC50 (TYRO3) | SMILES
1 | 1000 to 10000 nM | ≤ 100 nM | COC[C@H](C)Nc1ncc2c(-c3ccnc(C)c3)cc(C3CCC4(CC3)NC(=O)NC4=O)n2n1 (mixture of isomers) [Compound 325, (S)-8-(2-((1-methoxypropan-2-yl)amino)-5-(2-methylpyridin-4-yl)pyrrolo[2,1-f][1,2,4]triazin-7-yl)-1,3-diazaspiro[4.5]decane-2,4-dione]
2 | 100 to 1000 nM | ≤ 100 nM | CCCCC[C@H](C)Nc1ncc2c(C3=CC[C@@H](C(=O)N4CCOCC4)CC3)cc([C@H]3CC[C@H](O)CC3)n2n1 [Compound 113]
3 | 100 to 1000 nM | ≤ 100 nM | CCCCC[C@H](C)Nc1ncc2c(N3CCNCC3)cc([C@H]3CC[C@H](O)CC3)n2n1 [Compound 114]
4 | 1000 to 10000 nM | 100 to 1000 nM | CCCCC[C@H](C)Nc1ncc2c(N3CCC(N(C)C)CC3)cc(C3CCC(O)CC3)n2n1.Cl (stereo partly drawn) [Compound 115, 4-[5-[4-(dimethylamino)-1-piperidyl]-2-[[(1S)-1-methylhexyl]amino]pyrrolo[2,1-f][1,2,4]triazin-7-yl]cyclohexanol hydrochloride]
5 | 100 to 1000 nM | ≤ 100 nM | CCCCC[C@H](C)Nc1ncc2c(C3CCNCC3)cc([C@H]3CC[C@H](O)CC3)n2n1 [Compound 116, (1S,4r)-4-(2-((S)-heptan-2-ylamino)-5-(piperidin-4-yl)pyrrolo[2,1-f][1,2,4]triazin-7-yl)cyclohexanol hydrochloride]
6 | 1000 to 10000 nM | 100 to 1000 nM | CCCCC[C@H](C)Nc1ncc2c(N3CCC(C(=O)O)CC3)cc([C@H]3CC[C@H](O)CC3)n2n1 [Compound 117]
7 | ≤ 100 nM | ≤ 100 nM | CC[C@H](C)Nc1ncc2c(-c3ccc(CN4CCN(C)CC4)cc3)cc([C@H]3CC[C@H](O)CC3)n2n1 [Compound 118]
8 | 100 to 1000 nM | ≤ 100 nM | CNS(=O)(=O)c1cncc(-c2cc([C@H]3CC[C@H](O)CC3)n3nc(N[C@@H](C)COC)ncc23)c1 [Compound 272]
9 | 100 to 1000 nM | ≤ 100 nM | CC(CC(F)(F)F)Nc1ncc2c(-c3cncc(S(C)(=O)=O)c3)cc(C3CCC(O)CC3)n2n1 (stereo not shown) [Compound 273]
10 | ≤ 100 nM | ≤ 100 nM | COCCn1cc(-c2cc([C@H]3CC[C@H](O)CC3)n3nc(N[C@@H](C)COC(F)F)ncc23)cn1 [Compound 274]
11 | 1000 to 10000 nM | ≤ 100 nM | CNS(=O)(=O)c1cncc(-c2cc([C@H]3CC[C@H](O)CC3)n3nc(N[C@@H](C)COC(F)F)ncc23)c1 [Compound 275]
12 | 100 to 1000 nM | ≤ 100 nM | C[C@@H](CC(F)(F)F)Nc1ncc2c(-c3cn[nH]c3)cc([C@H]3CC[C@H](O)CC3)n2n1 [Compound 276]
13 | ≤ 100 nM | ≤ 100 nM | COC[C@H](C)Nc1ncc2c(-c3cnn(Cc4nnc(C)o4)c3)cc([C@H]3CC[C@H](O)CC3)n2n1 [Compound 277]
14 | 100 to 1000 nM | ≤ 100 nM | CNS(=O)(=O)c1cncc(-c2cc([C@H]3CC[C@H](O)CC3)n3nc(N[C@@H](C)CC(F)(F)F)ncc23)c1 [Compound 278]
15 | 100 to 1000 nM | ≤ 100 nM | COC[C@H](C)Nc1ncc2c(-c3ccc(S(C)(=O)=O)nc3)cc([C@H]3CC[C@H](O)CC3)n2n1 [Compound 279]
16 | 100 to 1000 nM | ≤ 100 nM | COC[C@H](C)Nc1ncc2c(-c3cnn(CCS(C)(=O)=O)c3)cc([C@H]3CC[C@H](O)CC3)n2n1 [Compound 280]
17 | ≤ 100 nM | ≤ 100 nM | COC[C@H](C)Nc1ncc2c(-c3cnn(Cc4ccnnc4)c3)cc([C@H]3CC[C@H](O)CC3)n2n1 [Compound 281]
18 | 100 to 1000 nM | ≤ 100 nM | COC[C@H](C)Nc1ncc2c(-c3cnn(C(C)(C)C(=O)N4CCOCC4)c3)cc([C@H]3CC[C@H](O)CC3)n2n1 [Compound 282]

Row | IC50 (FLT3) | IC50 (TYRO3) | SMILES
19 | 1000 to 10000 nM | ≤ 100 nM | COC[C@H](C)Nc1ncc2c(-c3cnn(C(C)(C)C(=O)N4CCC4)c3)cc([C@H]3CC[C@H](O)CC3)n2n1 [Compound 283]
20 | 1000 to 10000 nM | ≤ 100 nM | COC[C@H](C)Nc1ncc2c(-c3cnn(C(C)(C)C(=O)O)c3)cc([C@H]3CC[C@H](O)CC3)n2n1 [Compound 284]
21 | 100 to 1000 nM | ≤ 100 nM | COC[C@H](C)Nc1ncc2c(-c3cnn(Cc4noc(C)n4)c3)cc([C@H]3CC[C@H](O)CC3)n2n1 [Compound 285]
22 | ≤ 100 nM | ≤ 100 nM | COC[C@H](C)Nc1ncc2c(-c3cnn(C4CN(C(C)=O)C4)c3)cc([C@H]3CC[C@H](O)CC3)n2n1 [Compound 286]
23 | ≤ 100 nM | ≤ 100 nM | COC[C@H](C)Nc1ncc2c(-c3cnn(C4CC(S(C)(=O)=O)C4)c3)cc([C@H]3CC[C@H](O)CC3)n2n1 (stereo partly shown) [Compound 287]
24 | ≤ 100 nM | ≤ 100 nM | C[C@@H](CC(F)(F)F)Nc1ncc2c(-c3cnn(CCS(C)(=O)=O)c3)cc([C@H]3CC[C@H](O)CC3)n2n1 [Compound 288]
25 | ≤ 100 nM | ≤ 100 nM | C[C@@H](CC(F)(F)F)Nc1ncc2c(-c3cnn([C@@H]4CCOC4)c3)cc([C@H]3CC[C@H](O)CC3)n2n1 [Compound 289]
26 | ≤ 100 nM | ≤ 100 nM | C[C@@H](CC(F)(F)F)Nc1ncc2c(-c3cnn([C@H]4CCOC4)c3)cc([C@H]3CC[C@H](O)CC3)n2n1 [Compound 290]
27 | 100 to 1000 nM | ≤ 100 nM | COC[C@H](C)Nc1ncc2c(-c3cnn(C4CN(CCC(F)(F)F)C4)c3)cc([C@H]3CC[C@H](O)CC3)n2n1 [Compound 291]
28 | 100 to 1000 nM | ≤ 100 nM | COC[C@H](C)Nc1ncc2c(-c3cnn(Cc4nc(C)no4)c3)cc([C@H]3CC[C@H](O)CC3)n2n1 [Compound 292]
29 | 100 to 1000 nM | ≤ 100 nM | COC[C@H](C)Nc1ncc2c(-c3cnn(C4CN(C(=O)C5COC5)C4)c3)cc([C@H]3CC[C@H](O)CC3)n2n1 [Compound 293]
30 | ≤ 100 nM | ≤ 100 nM | COC[C@H](C)Nc1ncc2c(-c3cnn(C4CN(C(=O)C5(C(F)(F)F)CC5)C4)c3)cc([C@H]3CC[C@H](O)CC3)n2n1 [Compound 294]
31 | 1000 to 10000 nM | ≤ 100 nM | CNC(=O)C(C)(C)n1cc(-c2cc([C@H]3CC[C@H](O)CC3)n3nc(N[C@@H](C)COC)ncc23)cn1 [Compound 295]
32 | ≤ 100 nM | ≤ 100 nM | Cc1nnc(Cn2cc(-c3cc([C@H]4CC[C@H](O)CC4)n4nc(N[C@@H](C)CC(F)(F)F)ncc34)cn2)o1 [Compound 296]
33 | ≤ 100 nM | ≤ 100 nM | C[C@@H](CC(F)(F)F)Nc1ncc2c(-c3ccc(S(C)(=O)=O)nc3)cc([C@H]3CC[C@H](O)CC3)n2n1 [Compound 297]
34 | 1000 to 10000 nM | ≤ 100 nM | C[C@@H](CC(F)(F)F)Nc1ncc2c(-c3cncc(C(=O)O)c3)cc([C@H]3CC[C@H](O)CC3)n2n1 [Compound 298]
35 | 1000 to 10000 nM | ≤ 100 nM | CC(CC(F)(F)F)Nc1ncc2c(-c3cnc(C(=O)O)nc3)cc(C3CCC(O)CC3)n2n1 (stereo not shown) [Compound 299]
